Results taken from US7718406B2, “Substrates for TAFI (A)” (DSM IP Assets B.V., priority 2002, dated 2010).

Columns and labels:
TAFIa = molecular target: T1, TAFIa (Homo sapiens, UniProt Q96IY4); test: Splitting of thiaarginine and thialysine substrates by TAFIa (Ellman's reagent, absorption at 405-412 nm); format: biochemical; conditions: substrate final concentration 174 μM; TAFIa final concentration 17 μg/ml; RT, 10 min; pH 7.4
T1 construct: purchased Enzyme Research Laboratory
T1 sequence (Q96IY4 115-423): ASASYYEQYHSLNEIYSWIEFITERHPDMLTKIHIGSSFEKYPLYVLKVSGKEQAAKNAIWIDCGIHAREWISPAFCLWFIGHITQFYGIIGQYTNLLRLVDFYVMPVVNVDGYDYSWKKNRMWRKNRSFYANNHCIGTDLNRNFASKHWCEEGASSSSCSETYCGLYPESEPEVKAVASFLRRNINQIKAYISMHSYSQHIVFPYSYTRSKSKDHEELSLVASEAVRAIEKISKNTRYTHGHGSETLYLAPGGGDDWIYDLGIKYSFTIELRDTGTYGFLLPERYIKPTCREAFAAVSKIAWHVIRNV
Procedure: Principle: TAFIa is determined as shown in Scheme 1. In a first step, the substrate is hydrolyzed by TAFIa in such a way that a thioamino acid (thiaarginine or thialysine) is released. These instable intermediates are rapidly decomposed into 2-mercaptoethylguanidine or 3-mercaptopropylamine, respectively. These mercapto compounds react with Ellman's reagent (5,5′-dithio-bis-(2-nitrobenzoic acid)), thereby releasing the strongly yellow 3-carboxy-4-nitrothiophenol that can be measured using a spectrophotometer at 405-412 nm. The free thiol content measured is directly proportional to the quantity of substrate hydrolyzed by TAFIa and thereby allows a quantitative analysis of the enzyme activity.
Enzyme assay: The enzyme activity is measured at room temperature by using a 10 mM substrate stock solution in DMSO. TAFI of human origin can be obtained in a stock solution of 360 μg/ml from Enzyme Research Laboratory or over blood plasma. Activation of TAFI to TAFIa occurred with thrombin (2.7 U/ml), the activation of which was produced with 30 μg of thrombomodulin. Excessive thrombin activity was eliminated by adding the synthetic inhibitor NAPAP. The measurement was performed on microtiter plates.
The absorption increase at 405-412 nm was recorded for 10 minutes.
in buffer (20 mM HEPES, 5 mM CaCl2, 0.01% Tween 80; pH 7.4) • incubate for 5 min at 25° C. Measurement:
(§1) • measure for 10 min at RT Results: • Splitting of thiaarginine and thialysine substrates (final concentration 174 μM) by TAFIa (final concentration 17 μg/ml) • in brackets the value for carboxypeptidase B • Substances of comparison A and B from Bull. Korean. Chem. Soc. 1998, 19(2), 189-193 • ΔE=Extinction variation at 405 nm

carboxypeptidase B = molecular target: T2, carboxypeptidase B (Homo sapiens, UniProt P15086); test: Splitting of thiaarginine and thialysine substrates by carboxypeptidase B; format: biochemical; conditions: substrate final concentration 174 μM
T2 sequence (P15086 111-417): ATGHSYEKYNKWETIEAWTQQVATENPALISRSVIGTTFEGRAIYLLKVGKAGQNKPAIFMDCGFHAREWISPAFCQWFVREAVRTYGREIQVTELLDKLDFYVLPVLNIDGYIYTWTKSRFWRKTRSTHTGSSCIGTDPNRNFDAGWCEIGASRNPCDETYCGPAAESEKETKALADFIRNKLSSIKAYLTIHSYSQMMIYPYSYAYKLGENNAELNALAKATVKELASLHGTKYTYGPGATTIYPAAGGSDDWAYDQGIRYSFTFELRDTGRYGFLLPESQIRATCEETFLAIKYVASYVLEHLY
Procedure: [drawing 2] have been described as substrates for carboxypeptidase B (Bull. Korean. Chem. Soc. 1998, 19(2), 189-193). […] Detection of CPB by means of compound A is carried out according to the following Scheme 1.
as §1

Compound	ΔE/min (extinction variation at 405 nm), splitting by TAFIa (TAFIa)	ΔE/min (extinction variation at 405 nm), value in brackets for carboxypeptidase B (carboxypeptidase B)
Boc-K(Z)-G(GUS)-OH × TFA [No. 4275]	0.041 ΔE/min	(0.028) ΔE/min
Boc-K(Z)-G(α-SPrA)-OH × TFA [No. 4341]	0.054 ΔE/min	
Bz-P-K(Boc)-G(GUS)-OH × TFA [No. 4300]	0.012 ΔE/min	(0.072) ΔE/min
Bz-V-G(GUS)-OH × TFA [No. 4334]	0.034 ΔE/min	
Bz-V-G(α-SPrA)-OH × TFA [No. 4336]	0.053 ΔE/min	

Second part, the compound after the results:

ΔE/min (extinction variation at 405 nm), splitting by TAFIa (TAFIa)	ΔE/min (extinction variation at 405 nm), value in brackets for carboxypeptidase B (carboxypeptidase B)	Compound
0.108 ΔE/min	(0.018) ΔE/min	Cl.N=C(N)NCCSC(NC(=O)[C@H](CCCCNC(=O)OCc1ccccc1)NC(=O)c1ccccc1)C(=O)O (stereo partly drawn) [No. 4269, benzoyl-(L)-lysyl-(ε-benzyloxycarbonyl)-α-(D,L)-(2-guanidinoethylthio)-glycine hydrochloride salt]
0.055 ΔE/min		NCCCSC(NC(=O)[C@H](CCCCNC(=O)OCc1ccccc1)NC(=O)c1ccccc1)C(=O)O.O=C(O)C(F)(F)F (stereo partly drawn) [No. 4339, benzoyl-(L)-lysyl-(ε-benzyloxycarbonyl)-α-(D,L)-(3-aminopropylthio)-glycine trifluoracetic acid salt]
0.043 ΔE/min	(0.034) ΔE/min	Boc-F-K(Boc)-G(GUS)-OH × HCl [No. 4298]
0.014 ΔE/min	(0.048) ΔE/min	Boc-K(Tos)-G(GUS)-OH × HCl [No. 4273]
0.042 ΔE/min	(0.059) ΔE/min	Z-A-K(Boc)-G(GUS)-OH × HCl [No. 4302]
